Experiments:
[1] = target: T1, Glycine receptor subunit alpha-1 (Homo sapiens, UniProt P23415); assay: Positive allosteric modulation of human glycine alpha1 receptor expressed in HEK293T cells assessed as glycine-induced increase incurrent response after 18 to 24 hrs by membrane potential blue dye based FLIPR assay; type: cell-based
T1 sequence (P23415 whole entry): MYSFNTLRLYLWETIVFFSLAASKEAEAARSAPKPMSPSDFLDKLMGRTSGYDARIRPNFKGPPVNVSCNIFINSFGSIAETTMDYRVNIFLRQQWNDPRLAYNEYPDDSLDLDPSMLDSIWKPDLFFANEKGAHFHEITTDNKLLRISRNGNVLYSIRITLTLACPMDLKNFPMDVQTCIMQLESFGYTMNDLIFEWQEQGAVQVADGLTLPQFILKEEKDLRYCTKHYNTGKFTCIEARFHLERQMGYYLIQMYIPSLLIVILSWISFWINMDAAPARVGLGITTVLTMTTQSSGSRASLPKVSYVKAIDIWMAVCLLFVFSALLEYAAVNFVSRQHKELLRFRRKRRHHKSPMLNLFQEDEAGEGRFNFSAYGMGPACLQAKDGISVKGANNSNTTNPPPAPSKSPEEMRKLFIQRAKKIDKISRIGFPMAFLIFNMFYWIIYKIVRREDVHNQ

[2] = target: Glycine receptor (alpha-1/beta) (Homo sapiens, UniProt P23415+P48167); assay: Positive allosteric modulation of human glycine alpha1beta receptor expressed in HEK293T cells assessed as glycine-induced increase in current response after 18 to 24 hrs by membrane potential blue dye based FLIPR assay; type: cell-based
[3] = target: T2, Glycine receptor alpha-3/beta (Homo sapiens, UniProt O75311+P48167); assay: Positive allosteric modulation of human glycine alpha3beta receptor expressed in HEK293T cells assessed as glycine-induced increase in current response after 18 to 24 hrs by membrane potential blue dye based FLIPR assay; type: cell-based
[4] = target: T2, Glycine receptor alpha-3/beta; assay: Positive allosteric modulation of human glycine alpha3beta receptor expressed in HEK293T cells assessed as potentiation of glycine-induced increase in current response after 18 to 24 hrs by membrane potential blue dye based FLIPR assay relative to glycine; type: cell-based
[5] = target: Neuronal acetylcholine receptor; alpha3/beta2 (Homo sapiens) (UniProt P17787+P32297); assay: Positive allosteric modulation of human alpha3beta2 nAChR expressed Xenopus oocytes at 3 uM relative to acetylcholine; type: protein-complex assay
[6] = target: T3, 5-hydroxytryptamine receptor 3A (Homo sapiens, UniProt P46098); assay: Inhibition of recombinant human 5-HT3A receptor expressed in HEK293 cell membranes […] in presence of [3H]GR65630
T3 sequence (P46098 whole entry): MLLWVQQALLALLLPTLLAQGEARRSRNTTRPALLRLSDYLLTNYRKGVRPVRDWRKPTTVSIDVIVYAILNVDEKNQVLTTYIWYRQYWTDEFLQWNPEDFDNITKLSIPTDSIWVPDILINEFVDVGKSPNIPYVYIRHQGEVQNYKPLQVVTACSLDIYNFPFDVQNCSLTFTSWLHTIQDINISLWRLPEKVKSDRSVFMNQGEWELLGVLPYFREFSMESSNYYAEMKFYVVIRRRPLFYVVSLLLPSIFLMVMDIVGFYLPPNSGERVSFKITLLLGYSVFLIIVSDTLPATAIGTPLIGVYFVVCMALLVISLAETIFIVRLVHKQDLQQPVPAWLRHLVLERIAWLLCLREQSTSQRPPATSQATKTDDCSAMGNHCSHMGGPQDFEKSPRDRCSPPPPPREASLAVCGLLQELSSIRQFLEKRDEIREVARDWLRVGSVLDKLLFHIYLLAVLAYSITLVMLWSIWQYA

[7] = target: Neuronal acetylcholine receptor subunit alpha-7 (Rattus norvegicus, UniProt Q05941); assay: Agonist activity at rat brain membrane alpha7 nAChR
[8] = target: Glycine receptor (Rattus norvegicus) (UniProt P22771+P24524+P07727+P20781); assay: Positive allosteric modulation of OFA rat embryonic ventral spinal cord neuron glycine receptor assessed as potentiation of glycine-induced chloride current at 1 to 10 uM by whole cell patch-clamp method relative to 10 uM glycine; type: protein-complex assay
[9] = target: T4, 5-hydroxytryptamine receptor 3A (Cavia porcellus, UniProt O70212); assay: Antagonist activity 5-HT3A receptor in guinea pig ileum assessed as inhibition of 2-methyl-5-HT induced response preincubated for 10 mins followed by agonist addition; details: read-out: pA2 (converted)
T4 sequence (O70212 whole entry): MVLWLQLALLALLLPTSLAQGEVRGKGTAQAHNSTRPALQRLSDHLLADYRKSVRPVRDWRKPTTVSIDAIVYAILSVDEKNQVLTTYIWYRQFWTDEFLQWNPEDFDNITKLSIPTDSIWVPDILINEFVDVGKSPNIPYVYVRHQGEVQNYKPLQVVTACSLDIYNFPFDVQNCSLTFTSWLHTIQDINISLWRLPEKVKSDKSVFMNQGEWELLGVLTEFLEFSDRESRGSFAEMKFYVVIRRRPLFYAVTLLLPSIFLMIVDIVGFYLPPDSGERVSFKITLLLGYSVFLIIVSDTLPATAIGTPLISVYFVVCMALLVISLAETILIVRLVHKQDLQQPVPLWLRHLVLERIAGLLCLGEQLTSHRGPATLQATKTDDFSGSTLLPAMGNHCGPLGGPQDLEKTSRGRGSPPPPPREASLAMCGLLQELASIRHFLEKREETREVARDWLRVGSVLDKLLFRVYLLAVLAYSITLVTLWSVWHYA

[10] = target: Gamma-aminobutyric acid receptor subunit alpha-1/beta-2 (Rattus norvegicus) (UniProt P62813+P63138); details: HEK293, 30 uM
Description: Positive allosteric modulation of recombinant rat GABAA receptor alpha1beta2 expressed in HEK293 cells assessed as increase in GABA-induced current at 30 uM at -100 mV holding potential measured for 1 to 2 secs for every 60 secs by whole cell patch-clamp method relative to GABA

[11] = target: T5, Glycine receptor subunit alpha-1 (Homo sapiens) (UniProt P23415); details: HEK293, 30 uM
T5 sequence (whole entry): T1 sequence (P23415 whole entry)
Description: Positive allosteric modulation of recombinant human glycine receptor alpha1 expressed in HEK293 cells assessed as increase in glycine-induced current at 30 uM at -60 mV holding potential measured for 1 to 2 secs for every 60 secs by whole cell patch-clamp method relative to glycine

[12] = target: Gamma-aminobutyric acid receptor subunit alpha-5/beta-3 (Homo sapiens) (UniProt P28472+P31644); assay: Positive allosteric modulation of recombinant human GABAA receptor alpha5beta3 expressed in Xenopus oocytes assessed as potentiation of GABA induced chloride current response relative to GABA; type: cell-based
[13] = target: GABA-A receptor alpha-1/beta-3 (Homo sapiens) (UniProt P14867+P28472); assay: Positive allosteric modulation of recombinant human GABAA receptor alpha1beta3 expressed in Xenopus oocytes assessed as potentiation of GABA induced chloride current response relative to GABA; type: cell-based
[14] = target: GABA-A receptor; alpha-3/beta-3/gamma-2 (Homo sapiens) (UniProt P18507+P28472+P34903); assay: Positive allosteric modulation of recombinant human GABAA receptor alpha3beta3gamma2 expressed in Xenopus oocytes assessed as potentiation of GABA induced chloride currents relative to 10 uM GABA; type: cell-based
[15] = target: Gamma-aminobutyric acid receptor subunit alpha-2/beta-3 (Homo sapiens) (UniProt P28472+P47869); assay: Positive allosteric modulation of recombinant human GABAA receptor alpha2beta3 expressed in Xenopus oocytes assessed as potentiation of GABA induced chloride current response relative to GABA; type: cell-based
[16] = target: GABA-A receptor; alpha-5/beta-3/gamma-2 (Homo sapiens) (UniProt P18507+P28472+P31644); assay: Positive allosteric modulation of recombinant human GABAA receptor alpha5beta3gamma2 expressed in Xenopus oocytes assessed as potentiation of GABA induced chloride currents relative to 10 uM GABA; type: cell-based
[17] = target: GABA-A receptor; alpha-1/beta-3/gamma-2 (Homo sapiens) (UniProt P14867+P18507+P28472); assay: Positive allosteric modulation of recombinant human GABAA receptor alpha1beta3gamma2 expressed in Xenopus oocytes assessed as potentiation of GABA induced chloride current response relative to 10 uM GABA; type: cell-based
[18] = target: GABA A receptor alpha-4/beta-3/gamma-2 (Homo sapiens, UniProt P18507+P28472+P48169); assay: Positive allosteric modulation of recombinant human GABAA receptor alpha4beta3gamma2 expressed in Xenopus oocytes assessed as potentiation of GABA induced chloride currents relative to 10 uM GABA; type: cell-based
[19] = target: GABA-A receptor; alpha-2/beta-3/gamma-2 (Homo sapiens) (UniProt P18507+P28472+P47869); assay: Positive allosteric modulation of recombinant human GABAA receptor alpha2beta3gamma2 expressed in Xenopus oocytes assessed as potentiation of GABA induced chloride currents relative to 10 uM GABA; type: cell-based
[20] = target: Gamma-aminobutyric acid receptor subunit alpha-3/beta-3 (Homo sapiens) (UniProt P28472+P34903); assay: Positive allosteric modulation of recombinant human GABAA receptor alpha3beta3 expressed in Xenopus oocytes assessed as potentiation of GABA induced chloride current response relative to GABA; type: cell-based
[21] = target: GABA-A receptor; alpha-6/beta-3/gamma-2 (Homo sapiens) (UniProt P18507+P28472+Q16445); assay: Positive allosteric modulation of recombinant human GABAA receptor alpha6beta3gamma2 expressed in Xenopus oocytes assessed as potentiation of GABA induced chloride currents relative to 10 uM GABA; type: cell-based
[22] = target: T3, 5-hydroxytryptamine receptor 3A; assay: Agonist activity at human […] receptor expressed in Xenopus laevis oocytes; type: cell-based
[23] = target: T6, Serotonin 3 (5-HT3) receptor (Homo sapiens, UniProt O95264+P46098); assay: Agonist activity at human […] receptor expressed in Xenopus laevis oocytes; type: cell-based
T6 sequence (P46098 whole entry): T3 sequence (P46098 whole entry)
T6 sequence (O95264 whole entry): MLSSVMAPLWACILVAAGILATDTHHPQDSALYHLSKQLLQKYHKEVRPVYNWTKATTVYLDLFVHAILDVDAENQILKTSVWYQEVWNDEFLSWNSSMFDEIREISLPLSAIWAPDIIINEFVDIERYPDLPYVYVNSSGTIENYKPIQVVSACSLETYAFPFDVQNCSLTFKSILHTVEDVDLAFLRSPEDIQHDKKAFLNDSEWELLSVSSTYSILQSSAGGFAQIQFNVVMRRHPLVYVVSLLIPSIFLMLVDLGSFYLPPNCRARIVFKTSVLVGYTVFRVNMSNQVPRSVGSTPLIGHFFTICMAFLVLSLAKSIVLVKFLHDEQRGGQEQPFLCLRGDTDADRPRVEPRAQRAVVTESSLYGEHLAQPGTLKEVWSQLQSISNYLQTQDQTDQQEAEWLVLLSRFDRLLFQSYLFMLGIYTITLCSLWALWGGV

Glycine receptor (Rattus norvegicus), sequence (P07727 whole entry, looked up): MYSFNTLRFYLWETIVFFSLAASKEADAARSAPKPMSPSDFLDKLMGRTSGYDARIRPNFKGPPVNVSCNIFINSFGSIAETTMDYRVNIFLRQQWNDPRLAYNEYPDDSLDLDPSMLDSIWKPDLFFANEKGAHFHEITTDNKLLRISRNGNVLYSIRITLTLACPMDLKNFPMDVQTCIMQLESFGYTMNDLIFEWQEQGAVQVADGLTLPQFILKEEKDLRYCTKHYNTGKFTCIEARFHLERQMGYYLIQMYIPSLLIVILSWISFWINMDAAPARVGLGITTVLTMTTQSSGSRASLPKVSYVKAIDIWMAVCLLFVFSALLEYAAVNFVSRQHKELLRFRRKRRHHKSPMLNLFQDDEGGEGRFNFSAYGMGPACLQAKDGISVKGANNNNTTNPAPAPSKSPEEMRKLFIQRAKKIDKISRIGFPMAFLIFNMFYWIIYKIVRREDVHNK
Glycine receptor (Rattus norvegicus), sequence (P20781 whole entry, looked up): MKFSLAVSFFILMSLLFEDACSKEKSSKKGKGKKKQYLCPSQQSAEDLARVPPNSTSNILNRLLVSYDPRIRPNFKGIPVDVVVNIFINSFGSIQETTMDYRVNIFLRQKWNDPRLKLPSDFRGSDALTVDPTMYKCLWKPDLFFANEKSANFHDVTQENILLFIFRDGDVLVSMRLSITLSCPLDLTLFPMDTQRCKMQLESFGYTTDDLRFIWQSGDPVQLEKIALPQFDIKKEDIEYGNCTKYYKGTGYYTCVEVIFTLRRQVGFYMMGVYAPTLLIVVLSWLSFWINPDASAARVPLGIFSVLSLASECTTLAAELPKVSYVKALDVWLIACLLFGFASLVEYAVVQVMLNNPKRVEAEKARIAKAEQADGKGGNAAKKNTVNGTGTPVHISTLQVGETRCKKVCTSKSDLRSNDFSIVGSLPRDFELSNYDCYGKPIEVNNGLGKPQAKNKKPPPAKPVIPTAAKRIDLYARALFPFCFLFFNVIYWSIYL
Glycine receptor (Rattus norvegicus), sequence (P22771 whole entry, looked up): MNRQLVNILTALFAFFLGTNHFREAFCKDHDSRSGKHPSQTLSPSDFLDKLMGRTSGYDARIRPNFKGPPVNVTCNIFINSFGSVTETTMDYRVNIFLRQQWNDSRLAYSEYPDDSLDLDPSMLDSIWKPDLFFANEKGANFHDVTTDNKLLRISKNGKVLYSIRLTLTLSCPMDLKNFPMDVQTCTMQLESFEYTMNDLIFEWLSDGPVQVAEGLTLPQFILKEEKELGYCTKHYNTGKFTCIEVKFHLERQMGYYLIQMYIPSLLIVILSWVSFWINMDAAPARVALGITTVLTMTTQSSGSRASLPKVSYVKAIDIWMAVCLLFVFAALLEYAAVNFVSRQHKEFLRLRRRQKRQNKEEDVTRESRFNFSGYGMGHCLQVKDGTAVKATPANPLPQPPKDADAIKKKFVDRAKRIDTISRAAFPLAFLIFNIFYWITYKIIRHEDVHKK
Glycine receptor (Rattus norvegicus), sequence (P24524 whole entry, looked up): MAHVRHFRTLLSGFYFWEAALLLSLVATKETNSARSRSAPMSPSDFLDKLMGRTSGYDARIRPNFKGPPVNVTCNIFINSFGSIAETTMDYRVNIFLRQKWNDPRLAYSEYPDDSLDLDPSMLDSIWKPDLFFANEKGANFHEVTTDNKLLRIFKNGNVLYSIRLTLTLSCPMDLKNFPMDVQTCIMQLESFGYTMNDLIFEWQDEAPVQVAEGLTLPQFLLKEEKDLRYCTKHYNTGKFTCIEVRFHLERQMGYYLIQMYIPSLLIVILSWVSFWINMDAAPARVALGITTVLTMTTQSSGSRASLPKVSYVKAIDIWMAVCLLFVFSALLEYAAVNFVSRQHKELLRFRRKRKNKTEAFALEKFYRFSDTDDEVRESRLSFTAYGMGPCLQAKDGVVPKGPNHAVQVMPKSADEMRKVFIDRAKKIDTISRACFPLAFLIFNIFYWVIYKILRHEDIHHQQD
Glycine receptor (alpha-1/beta), sequence (P48167 whole entry, one chain of several): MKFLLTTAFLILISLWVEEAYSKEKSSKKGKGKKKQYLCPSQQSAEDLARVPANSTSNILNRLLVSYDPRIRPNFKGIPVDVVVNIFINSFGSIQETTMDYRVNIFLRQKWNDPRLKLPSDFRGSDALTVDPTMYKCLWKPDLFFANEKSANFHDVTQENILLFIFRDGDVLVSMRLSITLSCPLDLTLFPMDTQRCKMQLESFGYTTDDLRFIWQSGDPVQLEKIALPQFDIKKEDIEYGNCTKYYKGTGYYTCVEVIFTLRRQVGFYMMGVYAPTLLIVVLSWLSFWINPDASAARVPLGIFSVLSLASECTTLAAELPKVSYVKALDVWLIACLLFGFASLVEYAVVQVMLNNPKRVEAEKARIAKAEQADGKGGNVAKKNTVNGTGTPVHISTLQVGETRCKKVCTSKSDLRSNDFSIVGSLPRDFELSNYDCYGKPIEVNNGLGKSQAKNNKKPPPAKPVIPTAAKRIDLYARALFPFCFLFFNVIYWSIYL
T2 sequence (O75311 whole entry): as the sequence (P24524 whole entry, looked up) above, with L11V, N32D, T372M, L381F, V398M, V399T, A406P, A414P, H461Q counted along it
T2 sequence (P48167 whole entry): as the sequence (P48167 whole entry, one chain of several) above
Neuronal acetylcholine receptor subunit alpha-7, sequence (Q05941 whole entry): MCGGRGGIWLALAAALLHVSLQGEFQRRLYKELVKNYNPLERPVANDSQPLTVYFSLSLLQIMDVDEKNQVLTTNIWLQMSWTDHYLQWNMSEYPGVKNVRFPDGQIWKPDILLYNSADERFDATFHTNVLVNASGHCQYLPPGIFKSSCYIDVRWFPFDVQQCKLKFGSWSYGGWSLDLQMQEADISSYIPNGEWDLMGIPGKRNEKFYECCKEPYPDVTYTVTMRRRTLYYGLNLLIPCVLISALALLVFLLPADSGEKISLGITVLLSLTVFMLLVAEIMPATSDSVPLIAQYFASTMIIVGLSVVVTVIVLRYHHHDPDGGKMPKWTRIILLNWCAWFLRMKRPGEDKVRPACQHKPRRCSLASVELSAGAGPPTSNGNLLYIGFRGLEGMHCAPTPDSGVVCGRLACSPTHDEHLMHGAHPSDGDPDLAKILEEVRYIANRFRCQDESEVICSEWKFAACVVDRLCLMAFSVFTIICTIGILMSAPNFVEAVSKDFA

CN1C(=O)[C@@H]2CN(S(=O)(=O)c3ccc4occc4c3)C[C@@H]2c2cnccc21
EC50 [1]: 327 nM
EC50 [2]: 171 nM
EC50 [3]: 330 nM
fold change (FC) [4]: 16

Clc1ccccc1CN[C@@H]1CN2CCC1CC2
fold change (FC) [5]: 3

O=C(N[C@H]1CN2CCC1CC2)c1ccc2ncccc2c1
IC50 [6]: 150 nM
IC50 [7]: 10000 nM

CN1[C@@H]2CC[C@H]1C[C@@H](NC(=O)c1nn(C)c3ccccc13)C2
fold change (FC) [8]: 1.73

CCCCNC(=O)c1nc2ccccc2nc1OC
Kb [9]: 20 nM

CC(C)c1cccc(C(C)C)c1O
Emax [10]: 279%
Emax [11]: 189%

O=C1C=C[C@H]([C@H]2c3cccc([N+](=O)[O-])c3C=CN2C(=O)OCc2ccccc2)O1
fold change (FC) [12]: 1.4
fold change (FC) [13]: 1.4
fold change (FC) [14]: 2.9
fold change (FC) [15]: 1.8
fold change (FC) [16]: 1.4
fold change (FC) [17]: 2.6
fold change (FC) [18]: 1.4
fold change (FC) [19]: 2.1
fold change (FC) [20]: 1.4
fold change (FC) [21]: 2.9

N=C(N)NC(=N)Nc1cccc(Cl)c1
EC50 [22]: 3800 nM
EC50 [23]: 2800 nM
